{
  "source": "patent US20040115331A1",
  "about": "“Ximenynic acid compositions, methods for their production and uses thereof” (priority 2002, published 2004)",
  "tested_on": "enteroendocrine L-cells",
  "assay": "Secretion of satiety inducing peptides (CCK-8, GLP-1) by enteroendocrine L-cells, radio immuno assay",
  "assay_type": "cell-based",
  "conditions": "L-cells incubated 2 h at 37° C in KRB buffer; compared with equal amounts of palmitic acid",
  "method": "To estimate the effects of ximenynic acid on satiety we measure the excretion of satiety inducing peptides (CCK-8 and GLP-1 L) by enteroendocrine L-cells. Two days prior to experiment 1*10^6 are cultured in 12-well culture plates. On the day of the experiment supernatants are replaced by Krebs-Ringer bicarbonate (KRB) buffer containing either control or test substances. Prior to the addition the solutions are adjusted to pH 7.2. Cells are incubated for 2 h at 37° C. Following incubation, supernatants are collected and measured by radio immuno assay for the amount of CCK-8 or GLP-1 which has been secreted.",
  "data": [
    {"smiles": "CCCCCC/C=C/C#CCCCCCCCC(=O)O", "note": "[ximenynic acid, octadeca-trans-11-en-9-ynoic acid]", "values": [
      {"measurement": "release of CCK-8", "result": "significantly greater release"},
      {"measurement": "release of GLP-1", "result": "significantly greater release"}
    ]}
  ]
}
